IC50 data for 29 compounds are collected here from patent US10787450B2 (BRISTOL-MYERS SQUIBB COMPANY, priority 2016, dated 2020).

pIC50: −log10 of the molar value. Where a name gives a salt, the structure may show the parent alone. Where only a bound is given, the exact number is not on record here.

By pIC50 is commonly meant the negative decadic logarithm of the IC50, by convention in mol/L. A higher pIC50 goes with a small IC50.

This test deals with ROCK2 (Homo sapiens (Human), UniProt O75116). Kind of test: ROCK2 kinase inhibition assay (FITC peptide substrate, LABCHIP 3000 Reader). Type of test: biochemical. Conditions: 5 μM ATP, 1.5 μM peptide substrate. In outline: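 IC50 derived by curve fitting of dose-response inhibition, read as separation of phosphorylated from unphosphorylated FITC peptide (1.5 μM) after EDTA stop. Buffer: HEPES pH 7.5, MgCl2, Brij-35, DTT; ATP 5 μM; final DMSO <2%; reaction initiated by Rho kinase addition.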
Chain of ROCK2 (O75116 whole entry, species assumed): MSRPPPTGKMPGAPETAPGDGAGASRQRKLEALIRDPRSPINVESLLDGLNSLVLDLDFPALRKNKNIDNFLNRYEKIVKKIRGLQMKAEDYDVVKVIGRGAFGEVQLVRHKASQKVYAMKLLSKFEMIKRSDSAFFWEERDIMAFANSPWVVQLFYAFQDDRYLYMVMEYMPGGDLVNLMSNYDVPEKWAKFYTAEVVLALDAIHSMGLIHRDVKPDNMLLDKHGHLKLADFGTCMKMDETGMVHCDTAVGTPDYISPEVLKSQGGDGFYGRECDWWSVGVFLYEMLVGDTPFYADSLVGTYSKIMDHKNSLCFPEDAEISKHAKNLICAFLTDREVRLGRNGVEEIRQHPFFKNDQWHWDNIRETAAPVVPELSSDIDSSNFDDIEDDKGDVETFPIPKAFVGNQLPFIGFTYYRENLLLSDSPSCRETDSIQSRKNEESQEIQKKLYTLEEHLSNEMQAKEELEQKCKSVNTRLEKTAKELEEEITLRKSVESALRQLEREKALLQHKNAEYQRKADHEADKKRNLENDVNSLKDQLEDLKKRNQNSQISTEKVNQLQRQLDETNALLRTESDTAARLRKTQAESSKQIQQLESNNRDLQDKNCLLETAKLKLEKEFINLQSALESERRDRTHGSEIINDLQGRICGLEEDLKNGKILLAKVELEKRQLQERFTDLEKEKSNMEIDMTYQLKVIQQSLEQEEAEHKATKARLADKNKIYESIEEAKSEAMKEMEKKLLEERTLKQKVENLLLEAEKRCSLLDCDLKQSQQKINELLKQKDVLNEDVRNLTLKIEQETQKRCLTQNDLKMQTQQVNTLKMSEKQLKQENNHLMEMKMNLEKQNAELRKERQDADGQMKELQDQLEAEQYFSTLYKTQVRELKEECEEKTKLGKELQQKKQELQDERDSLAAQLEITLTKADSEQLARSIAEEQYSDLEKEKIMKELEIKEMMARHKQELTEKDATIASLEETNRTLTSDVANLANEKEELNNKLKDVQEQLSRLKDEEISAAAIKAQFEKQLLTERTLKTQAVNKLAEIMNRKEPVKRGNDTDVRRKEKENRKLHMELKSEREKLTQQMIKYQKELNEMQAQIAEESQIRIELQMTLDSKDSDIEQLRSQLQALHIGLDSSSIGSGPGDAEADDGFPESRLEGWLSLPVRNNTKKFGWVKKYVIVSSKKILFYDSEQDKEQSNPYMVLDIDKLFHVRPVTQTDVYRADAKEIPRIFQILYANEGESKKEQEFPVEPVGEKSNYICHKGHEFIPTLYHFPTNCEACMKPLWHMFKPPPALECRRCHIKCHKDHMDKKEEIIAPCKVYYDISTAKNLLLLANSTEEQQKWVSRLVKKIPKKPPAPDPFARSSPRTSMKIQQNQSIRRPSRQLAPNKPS
Compound `CCc1nc(N2CC3(CCN(CC(C)O)CC3)N(Cc3cc(F)cc(OC)c3)C2=O)ccc1-c1cn[nH]c1` (centres unmarked) [Example 154, 3-(6-ethyl-5-(1H-pyrazol-4-yl)pyridin-2-yl)-1-(3-fluoro-5-methoxybenzyl)-8-(2-hydroxypropyl)-1,3,8-triazaspiro[4.5]decan-2-one] had a pIC50 greater than 8.52. Then `CCc1nc(N2CC3(CCN(CC(C)(C)O)CC3)N(Cc3cc(F)cc(OC)c3)C2=O)ccc1-c1cn[nH]c1` [Example 155, 3-(6-ethyl-5-(1H-pyrazol-4-yl)pyridin-2-yl)-1-(3-fluoro-5-methoxybenzyl)-8-(2-hydroxy-2-methylpropyl)-1,3,8-triazaspiro[4.5]decan-2-one], with greater than 8.52; and `CCc1nc(N2CC3(CCN(CC(C)O)CC3)N(Cc3cccc(F)c3C)C2=O)ccc1-c1cn[nH]c1` (centres unmarked) [Example 156, 3-(6-ethyl-5-(1H-pyrazol-4-yl)pyridin-2-yl)-1-(3-fluoro-2-methylbenzyl)-8-(2-hydroxypropyl)-1,3,8-triazaspiro[4.5]decan-2-one], with greater than 8.52. Then `COc1cc(F)cc(CN2C(=O)N(c3ccc(-c4cn[nH]c4)cc3)CC23CCN(CC(C)O)CC3)c1` (centres unmarked) [Example 157, 3-(4-(1H-pyrazol-4-yl)phenyl)-1-(3-fluoro-5-methoxybenzyl)-8-(2-hydroxypropyl)-1,3,8-triazaspiro[4.5]decan-2-one], with greater than 8.52; and `COc1cccc(CN2C(=O)N(c3ccc(-c4cn[nH]c4)cn3)CC23CCN(CCO)CC3)c1` [Example 159, 3-(5-(1H-pyrazol-4-yl)pyridin-2-yl)-8-(2-hydroxyethyl)-1-(3-methoxybenzyl)-1,3,8-triazaspiro[4.5]decan-2-one], with greater than 8.52; and `COc1cccc(CN2C(=O)N(c3ccc(-c4cn[nH]c4)cn3)CC23CCN(CC(C)O)CC3)c1` (centres unmarked) [Example 160, 3-(5-(1H-pyrazol-4-yl)pyridin-2-yl)-8-(2-hydroxypropyl)-1-(3-methoxybenzyl)-1,3,8-triazaspiro[4.5]decan-2-one], with 7.52 to 8.52. `COc1cccc(CN2C(=O)N(c3ccc(-c4cn[nH]c4)cn3)CC23CCN(CC(C)(C)O)CC3)c1` [Example 161, 3-(5-(1H-pyrazol-4-yl)pyridin-2-yl)-8-(2-hydroxy-2-methylpropyl)-1-(3-methoxybenzyl)-1,3,8-triazaspiro[4.5]decan-2-one] had a pIC50 greater than 8.52. In turn, `COCCN1CCC2(CC1)CN(c1ccc(-c3cn[nH]c3)cn1)C(=O)N2Cc1cccc(OC)c1` [Example 162, 3-(5-(1H-pyrazol-4-yl)pyridin-2-yl)-1-(3-methoxybenzyl)-8-(2-methoxyethyl)-1,3,8-triazaspiro[4.5]decan-2-one] gave a pIC50 greater than 8.52. As to `COc1cccc(CN2C(=O)N(c3ncc(-c4cn[nH]c4)c(OC)n3)CC23CCN(CC(C)(C)O)CC3)c1` [Example 163, 8-(2-hydroxy-2-methylpropyl)-3-(4-methoxy-5-(1H-pyrazol-4-yl)pyrimidin-2-yl)-1-(3-methoxybenzyl)-1,3,8-triazaspiro[4.5]decan-2-one], the pIC50 was 7.52 to 8.52.

Compound `COCCN1CCC2(CC1)CN(c1ccc(-c3cn[nH]c3)c(OC)n1)C(=O)N2Cc1cccc(F)c1C` [Example 165, 1-(3-fluoro-2-methylbenzyl)-3-(6-methoxy-5-(1H-pyrazol-4-yl)pyridin-2-yl)-8-(2-methoxyethyl)-1,3,8-triazaspiro[4.5]decan-2-one] gave a pIC50 greater than 8.52. Then `COc1nc(N2CC3(CCN(CC(C)O)CC3)N(Cc3cccc(F)c3C)C2=O)ccc1-c1cn[nH]c1` (centres unmarked) [Example 166, 1-(3-fluoro-2-methylbenzyl)-8-(2-hydroxypropyl)-3-(6-methoxy-5-(1H-pyrazol-4-yl)pyridin-2-yl)-1,3,8-triazaspiro[4.5]decan-2-one], with greater than 8.52; and `COc1nc(N2CC3(CCN(CC(C)(C)O)CC3)N(Cc3cccc(F)c3C)C2=O)ccc1-c1cn[nH]c1` [Example 167, 1-(3-fluoro-2-methylbenzyl)-8-(2-hydroxy-2-methylpropyl)-3-(6-methoxy-5-(1H-pyrazol-4-yl)pyridin-2-yl)-1,3,8-triazaspiro[4.5]decan-2-one], with greater than 8.52; and `CNC(=O)CN1CCC2(CC1)CN(c1ccc(-c3cn[nH]c3)cc1)C(=O)N2Cc1cccc(OC)c1` [Example 168, 2-(3-(4-(1H-pyrazol-4-yl)phenyl)-1-(3-methoxybenzyl)-2-oxo-1,3,8-triazaspiro[4.5]decan-8-yl)-N-methylacetamide], with greater than 8.52. As to `COc1cccc(CN2C(=O)N(c3ccc(-c4cn[nH]c4)cc3)CC23CCN(CC(N)=O)CC3)c1` [Example 169, 2-(3-(4-(1H-pyrazol-4-yl)phenyl)-1-(3-methoxybenzyl)-2-oxo-1,3,8-triazaspiro[4.5]decan-8-yl)acetamide], the pIC50 is greater than 8.52. The figure for `COc1cccc(CN2C(=O)N(c3ccc(-c4cn[nH]c4)cc3)CC23CCN(CC(=O)N(C)C)CC3)c1` [Example 170, 2-(3-(4-(1H-pyrazol-4-yl)phenyl)-1-(3-methoxybenzyl)-2-oxo-1,3,8-triazaspiro[4.5]decan-8-yl)-N,N-dimethylacetamide] is greater than 8.52; for `COc1cccc(CN2C(=O)N(c3ccc(-c4cn[nH]c4)cc3)CC23CCN(C(=O)C2CCC(F)(F)CC2)CC3)c1` [Example 171, 3-(4-(1H-pyrazol-4-yl)phenyl)-8-(4,4-difluorocyclohexanecarbonyl)-1-(3-methoxybenzyl)-1,3,8-triazaspiro[4.5]decan-2-one] it is greater than 8.52; for `COc1cccc(CN2C(=O)N(c3ccc(-c4cn[nH]c4)cc3)CC23CCN(C(=O)C2CCC2)CC3)c1` [Example 172, 3-(4-(1H-pyrazol-4-yl)phenyl)-8-(cyclobutanecarbonyl)-1-(3-methoxybenzyl)-1,3,8-triazaspiro[4.5]decan-2-one] it is greater than 8.52.

`COc1cccc(CN2C(=O)N(c3ccc(-c4cn[nH]c4)cc3)CC23CCN(C(=O)C2CCOCC2)CC3)c1` [Example 173, 3-(4-(1H-pyrazol-4-yl)phenyl)-1-(3-methoxybenzyl)-8-(tetrahydro-2H-pyran-4-carbonyl)-1,3,8-triazaspiro[4.5]decan-2-one, TFA]: the pIC50 was greater than 8.52. The compound `COc1cccc(CN2C(=O)N(c3ccc(-c4cn[nH]c4)cc3)CC23CCN(C(=O)C2CCCC2)CC3)c1` [Example 174, 3-(4-(1H-pyrazol-4-yl)phenyl)-8-(cyclopentanecarbonyl)-1-(3-methoxybenzyl)-1,3,8-triazaspiro[4.5]decan-2-one] showed a pIC50 greater than 8.52. Then `COc1cccc(CN2C(=O)N(c3ccc(-c4cn[nH]c4)cc3)CC23CCN(C(=O)C2CCC(F)(F)C2)CC3)c1` (centres unmarked) [Example 175, 3-(4-(1H-pyrazol-4-yl)phenyl)-8-(3,3-difluorocyclopentane-carbonyl)-1-(3-methoxybenzyl)-1,3,8-triazaspiro[4.5]decan-2-one], with greater than 8.52; and `COc1cccc(CN2C(=O)N(c3ccc(-c4cn[nH]c4)cc3)CC23CCN(C(=O)CO)CC3)c1` [Example 176, 3-(4-(1H-pyrazol-4-yl)phenyl)-8-(2-hydroxyacetyl)-1-(3-methoxybenzyl)-1,3,8-triazaspiro[4.5]decan-2-one], with greater than 8.52. Then `COc1cccc(CN2C(=O)N(c3ccc(-c4cn[nH]c4)cc3)CC23CCN(C(=O)[C@H](C)O)CC3)c1` [Example 177, (S)-3-(4-(1H-pyrazol-4-yl)phenyl)-8-(2-hydroxypropanoyl)-1-(3-methoxybenzyl)-1,3,8-triazaspiro[4.5]decan-2-one], with greater than 8.52. The figure for `COc1cccc(CN2C(=O)N(c3ccc(-c4cn[nH]c4)cc3)CC23CCN(C(=O)[C@@H](C)O)CC3)c1` [Example 178, (R)-3-(4-(1H-pyrazol-4-yl)phenyl)-8-(2-hydroxypropanoyl)-1-(3-methoxybenzyl)-1,3,8-triazaspiro[4.5]decan-2-one] is greater than 8.52; for `COc1cccc(CN2C(=O)N(c3ccc(-c4cn[nH]c4)cc3)CC23CCN(C(=O)c2ccc4cc[nH]c4c2)CC3)c1` [Example 179, 3-(4-(1H-pyrazol-4-yl)phenyl)-8-(1H-indole-6-carbonyl)-1-(3-methoxybenzyl)-1,3,8-triazaspiro[4.5]decan-2-one] it is 7.52 to 8.52; for `COc1cccc(CN2C(=O)N(c3ccc(-c4cn[nH]c4)cc3)CC23CCN(C(=O)c2cnn4ccccc24)CC3)c1` [Example 180, 3-(4-(1H-pyrazol-4-yl)phenyl)-1-(3-methoxybenzyl)-8-(pyrazolo[1,5-a]pyridine-3-carbonyl)-1,3,8-triazaspiro[4.5] decan-2-one] it is 7.52 to 8.52. `CCc1nc(N2CC3(CCN(C(=O)CO)CC3)N(Cc3cccc(F)c3C)C2=O)ccc1-c1cn[nH]c1` [Example 181, 3-(6-ethyl-5-(1H-pyrazol-4-yl)pyridin-2-yl)-1-(3-fluoro-2-methylbenzyl)-8-(2-hydroxyacetyl)-1,3,8-triazaspiro[4.5]decan-2-one]: the pIC50 is greater than 8.52. Then `CCc1nc(N2CC3(CCN(C(=O)C4COC4)CC3)N(Cc3cccc(F)c3C)C2=O)ccc1-c1cn[nH]c1` [Example 182, 3-(6-ethyl-5-(1H-pyrazol-4-yl)pyridin-2-yl)-1-(3-fluoro-2-methylbenzyl)-8-(oxetane-3-carbonyl)-1,3,8-triazaspiro[4.5]decan-2-one], with greater than 8.52; and `CCc1nc(N2CC3(CCN(C(=O)C(F)F)CC3)N(Cc3cccc(OC)c3)C2=O)ccc1-c1cn[nH]c1` [Example 183, 8-(2,2-difluoroacetyl)-3-(6-ethyl-5-(1H-pyrazol-4-yl)pyridin-2-yl)-1-(3-methoxybenzyl)-1,3,8-triazaspiro[4.5]decan-2-one], with greater than 8.52. Consider `CCc1nc(N2CC3(CCN(C(=O)CO)CC3)N(Cc3cccc(OC)c3)C2=O)ccc1-c1cn[nH]c1` [Example 184, 3-(6-ethyl-5-(1H-pyrazol-4-yl)pyridin-2-yl)-8-(2-hydroxyacetyl)-1-(3-methoxybenzyl)-1,3,8-triazaspiro[4.5]decan-2-one], for which the pIC50 is greater than 8.52.
